Results: US20070191492A1, “Method for suppressing lung tumorigenesis” (Sumitomo Chemical Company, Limited, priority 2003, published 2007)

System: lung tumorigenesis
Assay: multi-organ carcinogenesis model in rats: suppression of lung tumorigenesis (histopathological examination of lung)
Assay type: in vivo, male F344 rat
Conditions: for Frequency of Animals having Tumors, Adenoma (animals with tumor / animals in group) / Frequency of Animals having Tumors, Adenoma (percent) / Frequency of Animals having Tumors, Carcinoma (animals with tumor / animals in group) / Frequency of Animals having Tumors, Carcinoma (percent) / Frequency of Animals having Tumors, Sum of Tumors (animals with tumor / animals in group) / Frequency of Animals having Tumors, Sum of Tumors (percent) / Tumor Multiplicity, Carcinoma (average number of tumors per individual ± standard deviation) / Tumor Multiplicity, Adenoma (average number of tumors per individual ± standard deviation) / Tumor Multiplicity, Sum of Tumors (average number of tumors per individual ± standard deviation): lung, 23 weeks
Procedure: With respect to the compound 1 (13α, 14α-epoxy-3β-methoxyserratan-21β-ol) obtained in Example 1, activities for suppressing or inhibiting lung tumorigenesis were measured using a multi-organ carcinogenesis model in rats.
Diethylnitrosamine dissolved in saline was once administered interperitoneally to each male F344 rat at 6 weeks of age (Charles River Japan, Inc.) at a dose of 100 mg/kg body weight wherein this day was made to be day 1 of the testing. In succession, N-methyl-N-nitrosourea dissolved in saline was administered interperitoneally at a dose of 20 mg/kg body weight at day 4, 8, 11 and 15 of the testing (total four times of dosing). Furthermore, dimethylhydrazine dissolved in saline was administered subcutaneously at a dose of 40 mg/kg body weight at day 18, 22, 25, 29, 32 and 36 of the testing (total six times of dosing). In parallel with administration of these carcinogens, drinking water into which 0.05% N-butyl-N-(4-hydroxybutyl)nitrosamine was dissolved was allowed to ingest to the F344 rat from day 1 of the testing for the following four weeks. Thereafter, drinking water into which around 0.1% of 2, 2′-dihydroxy-di-n-propylnitrosamine was dissolved was allowed to ingest to the F344 rat for over two weeks from the beginning of week 5 to the end of week 6 of the testing. With respect to the F344 rat treated with a variety of carcinogens as described above, administration of the compound 1 was started from the beginning of week 8 of the testing. The compound 1 was dissolved into corn oil and forcibly administered orally into stomach using a sonde at a dose of 5 or 10 mg/kg body weight. The administration was implemented at a frequency of once a day, five days in a week, and continued for twenty three weeks. As a reference, untreated groups to which no compound 1 was administered were provided. After elapsed thirty weeks from starting the testing, each F344 rat had been sacrified to isolate a lung, and histopathological examination was conducted on the lung thus isolated. With respect to neoplastic lesions, they were classified into a benign or malignant lesion, and a number of animals each having a benign tumor or a malignant tumor and a number of tumors were counted in each group.

[1] = 5 mg/kg orally once a day, five days a week, examined after 30 weeks
[2] = treated group vs untreated group, in words

## 13α, 14α-epoxy-3β-methoxyserratan-21β-ol [Compound 1]
[1]
  Frequency of Animals having Tumors, Adenoma (animals with tumor / animals in group): 11/20
  Frequency of Animals having Tumors, Adenoma (percent): 55%
5 mg/kg orally, P < 0.05
  Frequency of Animals having Tumors, Carcinoma (animals with tumor / animals in group): 1/20
  Frequency of Animals having Tumors, Carcinoma (percent): 5%
  Frequency of Animals having Tumors, Sum of Tumors (animals with tumor / animals in group): 11/20
  Frequency of Animals having Tumors, Sum of Tumors (percent): 55%
  Tumor Multiplicity, Carcinoma (average number of tumors per individual ± standard deviation): 0.05 ± 0.22
5 mg/kg orally, p < 0.01
  Tumor Multiplicity, Adenoma (average number of tumors per individual ± standard deviation): 0.70 ± 0.80
  Tumor Multiplicity, Sum of Tumors (average number of tumors per individual ± standard deviation): 0.75 ± 0.85
10 mg/kg orally
  Frequency of Animals having Tumors, Adenoma (animals with tumor / animals in group): 12/19
  Frequency of Animals having Tumors, Adenoma (percent): 67%
  Frequency of Animals having Tumors, Carcinoma (animals with tumor / animals in group): 5/19
  Frequency of Animals having Tumors, Carcinoma (percent): 28%
  Frequency of Animals having Tumors, Sum of Tumors (animals with tumor / animals in group): 13/19
  Frequency of Animals having Tumors, Sum of Tumors (percent): 72%
  Tumor Multiplicity, Carcinoma (average number of tumors per individual ± standard deviation): 0.29 ± 0.47
10 mg/kg orally, P < 0.05
  Tumor Multiplicity, Adenoma (average number of tumors per individual ± standard deviation): 1.00 ± 1.00
  Tumor Multiplicity, Sum of Tumors (average number of tumors per individual ± standard deviation): 1.22 ± 1.06
[2]
  frequency of animals each having tumor (adenoma or carcinoma) compared with the untreated group: lower value
  tumor multiplicity (adenoma or carcinoma) compared with the untreated group: lower value
